Values quoted from earlier work, collected in US20130202654A1, “Topical Foam Composition” (priority 2009, published 2013).
Like-named read-outs stand apart in the source and are kept apart here.

Assays:
[1] = not given; remark: listed apart in the source
[2] = not given; remark: listed apart in the source

- solubility in alcohol, ethyl acetate, chloroform and toluene (alcohol, ethyl acetate, chloroform, toluene): soluble
- solubility in alcohols (alcohols): readily soluble
- solubility in water: water insoluble
- solubility in water (listed as rifaximin): virtually insoluble in water
- Tmax ([1]; in vivo): 0.8 h
- half-life ([1]; in vivo): 1.8 h
- Cmax ([1]; low systemic absorption): 3.4 ng/mL
- bound to plasma proteins [2]: 67.5%
SMILES: CO[C@H]1/C=C/O[C@@]2(C)Oc3c(C)c(O)c4c(O)c(c5c(nc6cc(C)ccn65)c4c3C2=O)NC(=O)/C(C)=C\C=C\[C@H](C)[C@H](O)[C@@H](C)[C@@H](O)[C@@H](C)[C@H](OC(C)=O)[C@@H]1C [Rifaximin, (2S,16Z,18E,20S,21S,22R,23R,24R,25S,26S,27S,28E)-5,6,21,23,25-pentahydroxy-27-methoxy-2,4,11,16,20,22,24,26-octamethyl-2,7-(epoxypentadeca-[1,11,13]trienimino)benzofuro[4,5-e]pyrido[1,2-a]-benzimida-zole-1,15(2H)-dione,25-acetate]
